These results are taken from patent publication US20260102346A1, “LIPID COMPOSITION” (priority 2022, published 2026).

The subject of test [1] is luciferase mRNA expression in livers and injection sites (muscles). In words: In vivo luciferase expression liver/muscle of LNP and LPP with different cationic lipids (Example 10). Also on record: species or system Balb/c mice. The following applies: 10 μg luciferase mRNA i.m., 6 hours after injection; for Liver/muscle (%, LNP): LNP preparation of the cationic lipid; for Liver/muscle (%, LPP): LPP preparation of the cationic lipid. An excerpt: Test of in vivo luciferase signal expression: female Balb/c mice (Beijing Vital River Laboratory Animal Technology Co., Ltd.) of 6-8 weeks of age were divided into 18 groups (M5-LNP, M5-LPP, SM102-LNP, SM102-LPP, ALC0315-LNP, ALC0315LPP, SW-II-121-LNP, SW-II-121-LPP, SW-II-122-LNP, SW-II-122-LPP, SW-II-134-3-LNP, SW-II-134-3-LPP, SW-II-138-2-LNP, SW-II-138-2-LPP, SW-II-139-2-LNP, SW-II-139-2-LPP, SW-II-140-2-LNP, and SW-II-140-2-LPP groups, with 3 mice per group). M5-LNP, M5-LPP, SM102-LNP, SM102-LPP, ALC0315-LNP, ALC0315LPP, SW-II-121-LNP, SW-II-121-LPP, SW-II-122-LNP, SW-II-122-LPP, SW-II-134-3-LNP, SW-II-134-3-LPP, SW-II-138-2-LNP, SW-II-138-2-LPP, SW-II-139-2-LNP, SW-II-139-2-LPP, SW-II-140-2-LNP, and SW-II-140-2-LPP solutions containing 10 μg of luciferase mRNA were administered by intramuscular injection (hind limbs of mice), respectively. 6 Hours after the administration, mice were injected intraperitoneally with 30 mg of a […] substrate. The bioluminescence was measured in a Xenogen IVIS-200 imaging system 15 minutes after substrate injection to evaluate the expression of the luciferase mRNA in the livers and injection sites (muscles) of the mice.

Test [2] has the same test system. Kind of test: In vivo luciferase expression of LNP with M5, MC3, SW-II-121 (Example 11.1). Further details: species or system Balb/c mice. The following applies: LNP preparation, DSPC, PEG-DMG, 50:10:38.5:1.5, 10 μg luciferase mRNA, 6 hours after intramuscular administration. The procedure: Test of in vivo luciferase signal expression: female Balb/c mice (Beijing Vital River Laboratory Animal Technology Co., Ltd.) of 6-8 weeks of age were divided into 3 groups (M5-LNP, MC3-LNP, and SW-II-121-LNP, with 3 mice per group). M5-LNP, MC3-LNP, and SW-II-121-LNP solutions containing 10 μg of luciferase mRNA were administered by intramuscular injection (hind limbs of mice), respectively. 6 Hours after the administration, mice were injected intraperitoneally with 30 mg of a […] substrate. The bioluminescence was measured in a Xenogen IVIS-200 imaging system 15 minutes after substrate injection to evaluate the expression of the luciferase mRNA in the livers and injection sites (muscles) of the mice.

In the case of `CCCCCCCCC(CCCCCC)C(=O)OCCCCCCN(CCCCO)CCCCCCOC(=O)C(CCCCCC)CCCCCCCC` (stereo not shown) [ALC-0315, reference compound], in test [1], the “Liver/muscle (%, LNP)” value stood at 199.8 ± 35.8% and the “Liver/muscle (%, LPP)” value came out at 173.2 ± 103.9%.
The matching figures for `CCCCCCCCCOC(=O)CCCCCCCN(CCO)CCCCCCCC(=O)OC(CCCCCCCC)CCCCCCCC` [Compound M5]: 10.1 ± 7.5% and 2.8 ± 0.3%.
The matching figures for `CCCCCCCCCCCOC(=O)CCCCCN(CCO)CCCCCCCC(=O)OC(CCCCCCCC)CCCCCCCC` [SM-102, reference compound]: 6.2 ± 3.3% and 2.7 ± 0.6%.
Regarding `CCCCCCCCC(CCCCCCCC)OC(=O)CCCCCCCN(CCO)CCCCCCCC(=O)OCCc1ccc(CCCCCCC)cc1` [SW-II-121], in test [1], the “Liver/muscle (%, LNP)” value worked out at 77.8 ± 48.9% and the “Liver/muscle (%, LPP)” value was 52.2 ± 38.9%. Further, the “in vivo expression (luciferase, injection site and liver)” value in test [2] is “significantly superior in vivo expression 6 hours after intramuscular administration to M5-LNP and MC3-LNP”.
Take `CCCCCCCCC(CCCCCCCC)OC(=O)CCCCCCCN(CCO)CCCCCCCC(=O)OCc1cccc(CCCCCC)c1` [SW-II-122]: in test [1], the “Liver/muscle (%, LNP)” value is reported as 11.9 ± 1.2% and the “Liver/muscle (%, LPP)” value was 2.8 ± 0.8%.
In the same order, the values of `CCCCCCCCCOC(=O)CCCCCCCN(CCO)CCCCCCCC(=O)OCCc1ccc(CCCC)c(CCCC)c1` [SW-II-134-3] are 8.2 ± 2.9% and 1.5 ± 0.8%.
For the molecule `CCCCCCCCC(CCCCCCCC)OC(=O)CCCCCCCN(CCO)CCCCCCCC(=O)OCCCCc1ccc(CCCCC)cc1` [SW-II-138-2], in test [1], the “Liver/muscle (%, LNP)” value amounted to 8.2 ± 5.7% and the “Liver/muscle (%, LPP)” value is listed as 3.5 ± 0.2%.
The matching figures for `CCCCCCCCC(CCCCCCCC)OC(=O)CCCCCCCN(CCO)CCCCCCCC(=O)OCCc1cccc(CCCC)c1` [SW-II-139-2]: 75.1 ± 16.1% and 2.0 ± 1.0%.
In the same order, the values of `CCCCCCCCC(CCCCCCCC)OC(=O)CCCCCCCN(CCO)CCCCCCCC(=O)OCCc1ccccc1CCCC` [SW-II-140-2] are 7.4 ± 4.0% and 3.3 ± 1.5%.
